Assay [1] relates to bacteria. Put plainly: bacterial growth in the 3D porous medium with antibiotic (light absorbance at 600 nm). The assay is classed as cell-based. The following applies: porous media. How it is done: In some embodiments, changes in growth/motility due to changes in antibiotic or antibiotic concentrations can be quantified. […] Using an 0.81% gel with different concentrations of kanamycin ([…] (ref 504), 317.5 μg/ml (ref 503), 156.25 μg/ml (ref 502), and 78.125 μg/ml (ref 501)), it can be seen that for the two highest concentrations, there was no growth.
(§1) In both figures, different concentrations of ampicillin were tested 1 μg/ml (ref. 511, 521), 2 μg/ml (ref 512, 522), 3 μg/ml (ref 513, 523), 4 μg/ml (ref 514, 524) and 6 μg/ml (ref 515, 525). For FIG. 6B, the different concentrations were added to bacteria in liquid LB media with no shaking.
(§2) In FIGS. 6A-6C, the levels of bacteria were monitored by measuring light absorbance at 600 nm. In some embodiments, the cells or media is irradiated with light from a light source positioned above the cells, and a lens or sensor positioned below the cells then captures the light either being emitted from the cells (i.e., the intensity of light being emitted by a marker gene, etc.) or being transmitted through the cells (i.e., not being absorbed). A processor can then be used to quantify the measured light or sensor signals. Further a processor can also be used to convert the measured light or sensor signals into concentrations or bacterial cell counts, via, e.g., calibration curves. Based on that, various antibiotic performance characteristics can be determined—MIC, minimal bactericidal concentration (MBC), etc.

The subject of assay [2] is bacteria. As to the kind of experiment: bacterial growth in liquid LB media with no shaking, with antibiotic (light absorbance at 600 nm). The assay is classed as cell-based. As for the experimental part:
as §1, §2

Turning to `CC1(C)S[C@@H]2[C@H](NC(=O)[C@H](N)c3ccccc3)C(=O)N2[C@H]1C(=O)O` [ampicillin], the bacterial growth entry in assay [1] (ampicillin 1 μg/ml, FIG. 6C ref 521) was “showed growth”; in assay [1] (ampicillin 2 μg/ml, FIG. 6C ref 522), “only the 1 μg/ml concentration showed growth”; in assay [1] (ampicillin 3 μg/ml, FIG. 6C ref 523), “only the 1 μg/ml concentration showed growth”; in assay [1] (ampicillin 4 μg/ml, FIG. 6C ref 524) it was “only the 1 μg/ml concentration showed growth”; in assay [1] (ampicillin 6 μg/ml, FIG. 6C ref 525) it was “only the 1 μg/ml concentration showed growth”; in assay [2] (ampicillin 1 μg/ml, FIG. 6B ref 511) it was “growth was detected”. Moreover, the bacterial growth result was “growth was detected” in assay [2] (ampicillin 2 μg/ml, FIG. 6B ref 512); “growth was detected” in assay [2] (ampicillin 3 μg/ml, FIG. 6B ref 513); “no growth” in assay [2] (ampicillin 4 μg/ml, FIG. 6B ref 514); “no growth” in assay [2] (ampicillin 6 μg/ml, FIG. 6B ref 515).
